Values after ≈ are worked out from the molar mass of the structure shown.
What was measured:
[1] = tested on: Staphylococcus cohnii ATCC 29974; experiment: Disc diffusion assay (DDA); type: cell-based; conditions: zone diameter, 200 μg per disc
Experimental: (§1) The staphylococci and enterococci were cultured and maintained on Mueller-Hinton Medium (agar and broth) at pH 7.2; they were incubated aerobically at 37° C. for 24 hours.
(§2) A sterile paper disc was impregnated with a sample of the test compound and a minimum of 30 minutes allowed for the solvents to evaporate as far as possible. The disc was then placed on an agar plate onto which the test micro-organism had been inoculated. The plate was then incubated under the conditions described above, following which it was examined visually for signs of bacterial growth. If the test compound had antimicrobial activity, a circular zone of no growth would be obtained around the disc. The diameter of this zone of “inhibition” was measured using a ProtoCOL™ automated zone sizer (Synbiosis, Cambridge, UK). In general, a greater diameter and/or area of the zone of inhibition indicates a greater antimicrobial activity in the relevant test compound, although other factors such as test compound mobility through the agar gel may also influence the result.
(§3) The area of the zone of inhibition was calculated from the measured zone diameter (D) using the formula π(D/2)^2.

[2] = tested on: Staphylococcus xylosus ATCC 29971; experiment: Disc diffusion assay (DDA); type: cell-based; conditions: zone diameter, 200 μg per disc
Experimental: as §1, §2, §3

P. acnes PRP-023 [3] = experiment: MIC assay; type: cell-based, Propionibacterium acnes; conditions: Cutibacterium acnes, PRP023; P. acnes PRP-023 (resistance MLSK)
Experimental: (§4) The Propionibacterium spp organisms were cultured and maintained on Wilkins-Chalgren Anaerobe Medium (agar and broth) at pH 6.0; cultures were incubated anaerobically at 37° C. for 72 hours.
(§5) This is a standard international method for quantitatively assessing the antimicrobial activity of a compound in a liquid medium. The method used a 96-well microtitre plate, capable of holding about 200 μl of liquid per well. […] The culture media were as described above for the relevant test organisms.
(§6) The wells were inoculated with a liquid suspension of freshly grown micro-organism and incubated under the conditions described above. After incubation, the microtitre plate was examined visually (with the aid of a light box) for cell pellets in and/or opaque wells, which would indicate microbial growth. The MIC value was recorded as the lowest concentration of test compound required to inhibit microbial growth, ie, the lowest concentration for which the liquid in the well remained clear.
(§7) The assays were conducted in duplicate and included both negative (culture medium only) and positive (culture medium, diluting solvent and inoculum) controls.

P. acnes PRP-026 [4] = experiment: MIC assay; type: cell-based, Propionibacterium acnes; conditions: Cutibacterium acnes, PRP026; P. acnes PRP-026 (resistance MLS)
Experimental: as §4, §5, §6, §7

P. acnes PRP-059 [5] = experiment: MIC assay; type: cell-based, Propionibacterium acnes; conditions: Cutibacterium acnes, PRP059; P. acnes PRP-059 (resistance MLS)
Experimental: as §4, §5, §6, §7

P. acnes PRP-002 = experiment: MBC assay; type: cell-based, Propionibacterium acnes; conditions: Cutibacterium acnes, PRP002; P. acnes PRP-002 (resistance Tet/MLS)
Experimental: as §4
(§8) This assay, normally carried out after an MIC assay, determines the minimum concentration of a compound that is lethal to the micro-organism being tested.
(§9) These samples were then individually sub-cultured on non-selective agar medium, under the incubation conditions described above. Following incubation they were examined visually for bacterial growth.

P. acnes PRP-003 = experiment: MBC assay; type: cell-based, Propionibacterium acnes; conditions: Cutibacterium acnes, PRP003; P. acnes PRP-003 (resistance Tet)
Experimental: as §4, §8, §9

P. acnes PRP-004 = experiment: MBC assay; type: cell-based, Propionibacterium acnes; conditions: Cutibacterium acnes, PRP004; P. acnes PRP-004 (resistance Tet)
Experimental: as §4, §8, §9

P. acnes PRP-007 = experiment: MBC assay; type: cell-based, Propionibacterium acnes; conditions: Cutibacterium acnes, PRP007; P. acnes PRP-007 (resistance Clin)
Experimental: as §4, §8, §9

P. acnes PRP-008 = experiment: MBC assay; type: cell-based, Propionibacterium acnes; conditions: Cutibacterium acnes, PRP008; P. acnes PRP-008 (resistance Clin)
Experimental: as §4, §8, §9

P. acnes PRP-017 = experiment: MBC assay; type: cell-based, Propionibacterium acnes; conditions: Cutibacterium acnes, PRP017; P. acnes PRP-017 (resistance MLS)
Experimental: as §4, §8, §9

P. acnes PRP-023 [6] = experiment: MBC assay; type: cell-based, Propionibacterium acnes; conditions: Cutibacterium acnes, PRP023; P. acnes PRP-023 (resistance MLSK)
Experimental: as §4, §8, §9

P. acnes PRP-026 [7] = experiment: MBC assay; type: cell-based, Propionibacterium acnes; conditions: Cutibacterium acnes, PRP026; P. acnes PRP-026 (resistance MLS)
Experimental: as §4, §8, §9

P. acnes PRP-046 = experiment: MBC assay; type: cell-based, Propionibacterium acnes; conditions: Cutibacterium acnes, PRP046; P. acnes PRP-046 (resistance None)
Experimental: as §4, §8, §9

P. acnes PRP-059 [8] = experiment: MBC assay; type: cell-based, Propionibacterium acnes; conditions: Cutibacterium acnes, PRP059; P. acnes PRP-059 (resistance MLS)
Experimental: as §4, §8, §9

P. acnes PRP-068 = experiment: MBC assay; type: cell-based, Propionibacterium acnes; conditions: Cutibacterium acnes, PRP068; P. acnes PRP-068 (resistance Ery)
Experimental: as §4, §8, §9

P. acnes PRP-101 = experiment: MBC assay; type: cell-based, Propionibacterium acnes; conditions: Cutibacterium acnes, PRP101; P. acnes PRP-101 (resistance Tet/MLS)
Experimental: as §4, §8, §9

P. acnes PRP-102 = experiment: MBC assay; type: cell-based, Propionibacterium acnes; conditions: Cutibacterium acnes, PRP102; P. acnes PRP-102 (resistance Tet/MLS)
Experimental: as §4, §8, §9

P. avidum ATCC 25577 = experiment: MIC assay; type: cell-based; conditions: Cutibacterium avidum, ATCC25577; P. avidum ATCC 25577 (resistance None)
Experimental: as §4, §5, §6, §7

P. granulosum NCTC 11865 = experiment: MIC assay; type: cell-based; conditions: P. granulosum NCTC 11865 (resistance None)
Experimental: as §4, §5, §6, §7

P. granulosum PRP-005 = experiment: MIC assay; type: cell-based; conditions: P. granulosum PRP-005 (resistance MLSK)
Experimental: as §4, §5, §6, §7

P. granulosum PRP-043 = experiment: MIC assay; type: cell-based; conditions: P. granulosum PRP-043 (resistance MLS)
Experimental: as §4, §5, §6, §7

P. granulosum PRP-044 = experiment: MIC assay; type: cell-based; conditions: P. granulosum PRP-044 (resistance MLS)
Experimental: as §4, §5, §6, §7

P. granulosum PRP-055 = experiment: MIC assay; type: cell-based; conditions: P. granulosum PRP-055 (resistance None)
Experimental: as §4, §5, §6, §7

SMILES	DDA [1] [mm]	DDA [2] [mm]	MIC (P. acnes PRP-023 [3]) [µg/mL]	MIC (P. acnes PRP-026 [4]) [µg/mL]	MIC (P. acnes PRP-059 [5]) [µg/mL]	MBC (P. acnes PRP-002) [µg/mL]	MBC (P. acnes PRP-003) [µg/mL]	MBC (P. acnes PRP-004) [µg/mL]	MBC (P. acnes PRP-007) [µg/mL]	MBC (P. acnes PRP-008) [µg/mL]	MBC (P. acnes PRP-017) [µg/mL]	MBC (P. acnes PRP-023 [6]) [µg/mL]	MBC (P. acnes PRP-026 [7]) [µg/mL]	MBC (P. acnes PRP-046) [µg/mL]	MBC (P. acnes PRP-059 [8]) [µg/mL]	MBC (P. acnes PRP-068) [µg/mL]	MBC (P. acnes PRP-101) [µg/mL]	MBC (P. acnes PRP-102) [µg/mL]	MIC (P. avidum ATCC 25577) [µg/mL]	MIC (P. granulosum NCTC 11865) [µg/mL]	other results
CC(C)(C)c1cc(O)ccc1O [TBHQ, t-butyl hydroquinone]	60.40	49.72	3.9 (≈ 23.5 µM)	3.9 (≈ 23.5 µM)	3.9 (≈ 23.5 µM)	7.8 (≈ 46.9 µM)	7.8 (≈ 46.9 µM)	7.8 (≈ 46.9 µM)	7.8 (≈ 46.9 µM)	7.8 (≈ 46.9 µM)	7.8 (≈ 46.9 µM)	7.8 (≈ 46.9 µM)	7.8 (≈ 46.9 µM)	7.8 (≈ 46.9 µM)	7.8 (≈ 46.9 µM)	7.8 (≈ 46.9 µM)	7.8 (≈ 46.9 µM)	15.6 (≈ 93.9 µM)	3.9 (≈ 23.5 µM)	3.9 (≈ 23.5 µM)	MIC (P. granulosum PRP-005): 62.5 µg/mL (≈ 376 µM); MIC (P. granulosum PRP-043): 15.6 µg/mL (≈ 93.9 µM); MIC (P. granulosum PRP-044): 15.6 µg/mL (≈ 93.9 µM); MIC (P. granulosum PRP-055): 3.9 µg/mL (≈ 23.5 µM)
O=C(OOC(=O)c1ccccc1)c1ccccc1 [benzoyl peroxide]	11.51	10.99	31.2 (≈ 129 µM)	15.6 (≈ 64.4 µM)	62.5 (≈ 258 µM)	31.2 (≈ 129 µM)	31.2 (≈ 129 µM)	15.6 (≈ 64.4 µM)	62.5 (≈ 258 µM)	31.2 (≈ 129 µM)	62.5 (≈ 258 µM)	62.5 (≈ 258 µM)	31.2 (≈ 129 µM)	62.5 (≈ 258 µM)	125 (≈ 516 µM)	125 (≈ 516 µM)	31.2 (≈ 129 µM)	62.5 (≈ 258 µM)	31.2 (≈ 129 µM)	15.6 (≈ 64.4 µM)	MIC (P. granulosum PRP-005): 15.6 µg/mL (≈ 64.4 µM); MIC (P. granulosum PRP-043): 62.5 µg/mL (≈ 258 µM); MIC (P. granulosum PRP-044): 31.2 µg/mL (≈ 129 µM); MIC (P. granulosum PRP-055): 15.6 µg/mL (≈ 64.4 µM)
